From US10214564B2, “Antimicrobial peptides derived from hepatitis B virus core protein arginine-rich domain” (priority 2013, dated 2019) come the findings set out here.

The subject of data set [1] is tested bacteria and fungi. It is filed as cell-based. To be noted: for bacteria; serine-phosphorylated peptides. How it is done: (§1) The antimicrobial activities of HBc ARD peptides were tested on numerous bacterial strains from ATCC, including Pseudomonas aeruginosa Migula strain (ATCC 27853, ampicillin-resistant), Pseudomonas aeruginosa Migula strain (ATCC 9027, ampicillin-resistant), Klebsiella pneumoniae strain (ATCC 17593), Escherichia coli strain (ATCC 25922), Staphylococcus aureus subsp. strain (ATCC 25923, methicillin-resistant), Staphylococcus aureus subsp. strain (ATCC29213, methicillin-resistant), Staphylococcus aureus subsp. strain (ATCC 19636, methicillinresistant), and Candida albicans strain (ATCC 10231).
(§2) All peptides were purchased from Yao-Hong Biotechnology Inc. (Taipei, Taiwan). Vendors provided data of peptide characterizations, including HPLC and Mass. Antimicrobial activity was determined as described with some modifications as detailed below. Bacteria were grown overnight in Mueller-Hinton broth (Difeo) at 37° C., and during the mid-logarithmic phase, bacteria were diluted to 10^6 CFU (colony formation unit)/ml in phosphate buffer (10 mM sodium phosphate and 50 mM sodium chloride, pH 7.2). Peptides were serially diluted in the same buffer. Fifty microliter (μl) of bacteria was mixed with fifty μl of peptides at varying concentrations followed by incubation at 37° C. for 3 hours without shaking. […]

For data set [2], the system named is Huh7, HepG2, Vero and HEK293 cells. Kind of data set: Cytotoxicity, MTT assay. Type of data set: cell-based, human, monkey. Conditions: for effect on cell viability: 0 to 100 μM, 1 hour at 37° C. How it is done: (§3) (A) Hemolytic activities of HBc147-183 and melittin were measured with 10% human red blood cells (RBC). […] (B) Huh7, HepG2, Vero and HEK293 cells were incubated with varying concentrations (0 to 100 μM) of HBc147-183 and melittin for 1 hour at 37° C. The effects on cell viability were determined by MTT assay. Melittin was used as a positive control. […] (C) Kidney cells, Vero and HEK293 were stained with CFSE and seeded at day 0. At day 1, cells were incubated with varying concentrations (0 to 100 μM) of HBc147-183 for 1 hour. Cell proliferation at day 1 and day 3 were determined by flow cytometry. […] Samples assayed in FIGS. 7A-C were measured in triplicates. (D) (D) In vivo toxicity of ARD peptide HBc147-183 was determined using three-week old male ICR mice. The mice were injected intraperitoneally with peptide (10 and 20 mg/kg of body weight).
Cytotoxicity was measured in HepG2, Huh7, HEK293, and Vero cells by MTT assay. Cells were seeded at 10^4 cells/well in a 96-well plate and serial dilutions of peptides were added into each well. PBS was used as a negative control and melittin was used as a positive control. After 1 hour of incubation, the medium were replaced by a fresh medium containing 10% MTT solution (PROMEGA™), and the plate was incubated for 4 hours in 5% CO2 at 37° C., The absorbance at the wavelength a 595 nm was measured by an ELISA reader (BIO-RAD™ model 680).

The test system of the next data set is P. aeruginosa. Type of data set: cell-based, Pseudomonas aeruginosa. On the procedure: as §1
(§4) Clinical isolates of Pseudomonas aeruginosa (NHRI-01, NHRI-02 AND NHRI-04) were obtained through the program of Taiwan Surveillance of Antimicrobial Resistance, National Health Research Institutes, Taiwan, Acinetobacter baumannii (ATCC 17989, ATCC 17978 CR, ATCC19606, ATCC 19606 CR, TCGH 45530 AND TCGH 46709) were obtained from Tzu-Chi Buddhist General Hospital in Taiwan, and clinical isolates (TCGH 1 45530 AND TCGH 46709) were identified using the Vitek system (Biomerieux Vitek, Inc., MO, USA). A. baumannii is defined as multidrug-resistant when the organism is resistant to piperacillin, piperacillin-tazobactam, ampicillin/sulbactam, imipenem, ceftazidime, gentamicin, amikacin, tetracycline, chloramphenicol, ciprofloxacin, and cotrimoxazole. Susceptibility to colistin was determined using the broth-dilution method, in accordance with the guidelines of the Clinical and Laboratory Standards Institute.
All peptides were purchased from Yao-Hong Biotechnology Inc. (Taipei, Taiwan). Vendors provided data of peptide characterizations, including HPLC and Mass. Antimicrobial activity was determined as described with some modifications as detailed below. Bacteria were grown overnight in Mueller-Hinton broth (Difeo) at 37° C., and during the mid-logarithmic phase, bacteria were diluted to 10^6 CFU (colony formation unit)/ml in phosphate buffer (10 mM sodium phosphate and 50 mM sodium chloride, pH 7.2). Peptides were serially diluted in the same buffer. […]

The next data set relates to K. pneumoniae. It is filed as cell-based, Klebsiella pneumoniae. Conditions: for Minimal bactericidal concentration: K. pneumoniae ATCC 13884. How it is done:
as §1
(§5) All peptides were purchased from Yao-Hong Biotechnology Inc. (Taipei, Taiwan). Vendors provided data of peptide characterizations, including HPLC and Mass. Antimicrobial activity was determined as described with some modifications as detailed below. Bacteria were grown overnight in Mueller-Hinton broth (Difeo) at 37° C., and during the mid-logarithmic phase, bacteria were diluted to 10^6 CFU (colony formation unit)/ml in phosphate buffer (10 mM sodium phosphate and 50 mM sodium chloride, pH 7.2). Peptides were serially diluted in the same buffer. Fifty microliter (μl) of bacteria was mixed with fifty μl of peptides at varying concentrations followed by incubation at 37° C. for 3 hours without shaking. At the end of incubation, bacteria were placed on Mueller-Hinton broth agar plates, and allowed growth at 37° C. overnight for measurement of minimal bactericidal concentration (MBC). […] All peptides were tested in triplicate.

The next data set concerns E. coli. Type of data set: cell-based, Escherichia coli. Conditions: for Minimal bactericidal concentration: E. coli ATCC 25922. On the procedure: as §1, §5
The test system of the next data set is S. aureus. Type of data set: cell-based, Staphylococcus aureus. Conditions: for Minimal bactericidal concentration: S. aureus ATCC 19636. How it is done:
as §1, §5

For another data set, the system named is C. albicans. It is filed as cell-based, Candida albicans. How it is done:
as §1, §2

Another data set deals with A. baumannii. It is filed as cell-based, Acinetobacter baumannii.
From the text: as §4
All peptides were purchased from Yao-Hong Biotechnology Inc. (Taipei, Taiwan). Vendors provided data of peptide characterizations, including HPLC and Mass. Antimicrobial activity was determined as described with some modifications as detailed below. […]

The next data set concerns human red blood cells. The data set can be described thus: Hemolytic activity. Type of data set: cell-based. Conditions: 10% hRBCs, one hour of incubation. How it is done: as §3
The hemolytic activities of peptides were determined by hemolysis against human red blood cells (hRBCs). Human blood was obtained in EDTA-containing tube and was centrifuged at 450 g for 10 min. […] After centrifugation at 450 g for 10 min, the percentage of hemolysis was determined by measuring the absorbance at the wavelength of 405 nm of the supernatant. Blank and 100% hemolysis were determined in PBS buffer and in the presence of 1% Triton X-100, respectively.

A further data set has as its system Vero and HEK293 cells. The data set can be described thus: CFSE cell proliferation assay. Conditions: 5, 25 and 100 μM for 1 hour, day 3 vs day 1. It is filed as cell-based, human, monkey. How it is done: as §3
To set up CFSE cell proliferation assay, 293 cells (human kidney origin) and Vero cells (monkey kidney origin) were resuspended in PBS to a final concentration of 10^6 cells/ml before incubation with 10 μM CFSE dye (CELLTRACE™ CFSE cell proliferation kit, INVITROGEN™) at 37° C. for 10 min. To quench the staining, ice-old culture media were then added and incubated on ice for 5 min. […] Forty-eight hours later, cells were harvested and analyzed by flow cytometry (FACSCanto, BD Bioscience).

The next data set deals with ICR mice. The data set can be described thus: In vivo acute toxicity. How it is done:
as §3
Three-week old male ICR mice (19 to 21 g) were purchased from BioLASCO (Taiwan) Overnight culture of bacteria in BHI broth (Difco) was subcultured in fresh BRI broth to log phase. Inoculums were diluted in BHI broth to indicated densities. To test the acute toxicity of ARD peptide in vivo, ICR male mice were inoculated intraperitoncally (i.p.) with 10 and 20 mg/kg HBc147-183 in PBS, respectively. […] After peptide injection, the number of dead mice was recorded daily for 7 days post-injection. […] Mortality was monitored daily for 7 days post-inoculation. […]

Like-named read-outs stand apart in the source and are kept apart here. Where no end group is shown, it is not given here.

For `CC(C)[C@H](NC(=O)[C@@H](NC(=O)[C@@H](N)[C@@H](C)O)C(C)C)C(=O)N[C@@H](CCCNC(=N)N)C(=O)N[C@@H](CCCNC(=N)N)C(=O)N[C@@H](CCCNC(=N)N)C(=O)NCC(=O)N[C@@H](CCCNC(=N)N)C(=O)N[C@@H](COP(=O)(O)O)C(=O)N1CCC[C@H]1C(=O)N[C@@H](CCCNC(=N)N)C(=O)N[C@@H](CCCNC(=N)N)C(=O)N[C@@H](CCCNC(=N)N)C(=O)N[C@H](C(=O)N1CCC[C@H]1C(=O)N[C@@H](COP(=O)(O)O)C(=O)N1CCC[C@H]1C(=O)N[C@@H](CCCNC(=N)N)C(=O)N[C@@H](CCCNC(=N)N)C(=O)N[C@@H](CCCNC(=N)N)C(=O)N[C@@H](CCCNC(=N)N)C(=O)N[C@@H](CO)C(=O)N[C@@H](CCC(N)=O)C(=O)N[C@@H](COP(=O)(O)O)C(=O)N1CCC[C@H]1C(=O)N[C@@H](CCCNC(=N)N)C(=O)N[C@@H](CCCNC(=N)N)C(=O)N[C@@H](CCCNC(=N)N)C(=O)N[C@@H](CCCNC(=N)N)C(=O)N[C@@H](CO)C(=O)N[C@@H](CCC(N)=O)C(=O)N[C@@H](CO)C(=O)N[C@@H](CCCNC(=N)N)C(=O)N[C@@H](CCC(=O)O)C(=O)N[C@@H](CO)C(=O)N[C@@H](CCC(N)=O)C(=O)N[C@@H](CS)C(=O)O)[C@@H](C)O` [HBc155p162p170p], the MBC in data set [1] is over 32 µM.
`CC[C@H](C)[C@H](NC(=O)CN)C(=O)NCC(=O)N[C@@H](C)C(=O)N[C@H](C(=O)N[C@@H](CC(C)C)C(=O)N[C@@H](CCCCN)C(=O)N[C@H](C(=O)N[C@@H](CC(C)C)C(=O)N[C@H](C(=O)N[C@H](C(=O)NCC(=O)N[C@@H](CC(C)C)C(=O)N1CCC[C@H]1C(=O)N[C@@H](C)C(=O)N[C@@H](CC(C)C)C(=O)N[C@H](C(=O)N[C@@H](CO)C(=O)N[C@@H](Cc1c[nH]c2ccccc12)C(=O)N[C@H](C(=O)N[C@@H](CCCCN)C(=O)N[C@@H](CCCNC(=N)N)C(=O)N[C@@H](CCCCN)C(=O)N[C@@H](CCCNC(=N)N)C(=O)N[C@@H](CCC(N)=O)C(=O)N[C@@H](CCC(N)=O)C(N)=O)[C@@H](C)CC)[C@@H](C)CC)[C@@H](C)O)[C@@H](C)O)C(C)C)C(C)C` [melittin, reference compound]: in [2], the “effect on cell viability” value is given as “strong toxicity”. In [2] (low dose (3.125 μM), 1 hour), the viability of cells entry is on record as “significantly decreased”.
In the case of “TVIRRRGGARASRSPRRRTPSPRRRRSQSPRRRRSQSPSANC [wHBc ARD]”, the Minimal bactericidal concentration is 2 µM with P. aeruginosa (P. aeruginosa ATCC 9027); 2 µM with P. aeruginosa (P. aeruginosa ATCC 27853); 2 µM with K. pneumoniae; 4 µM in the data set with E. coli; 8 µM with S. aureus.
In the case of “TVVRRRGRSPRRRTPSPRRRRSQSPRRRRSQSRESQC [HBc147-183]”, the MBC against P. aeruginosa (colistin-resistant P. aeruginosa) is over 16 µM; in the data set with K. pneumoniae (K. pneumonia, strain not given), “lower than 4 μM”; against E. coli (E. coli, strain not given) it was “around 4 μM”; against S. aureus (S. aureus, strain not given) it was “around 4 μM”; against C. albicans, about 8 µM; against A. baumannii it was 0.5 to 1 µM. For the same molecule, the MBC in the data set on A. baumannii (colistin-resistant A. baumannii) is 0.5 to 1 µM. Besides, the Minimal bactericidal concentration turned out to be 2 µM with K. pneumoniae, 4 µM in the data set with E. coli and 4 µM in the data set with S. aureus. Also, in the data set on human red blood cells, the hemolysis result was “no detectable hemolysis”. Further, the “effect on cell viability” value in data set [2] is given as “no detectable effect”. Further, the cytotoxicity result in [2] (100 μM, 1 hour) is on record as “only a low level of cytotoxicity”. For the same molecule, the “effect on cell proliferation” value in the data set on Vero and HEK293 cells is recorded as “no significant effect”. The in vivo toxicity entry in the data set with ICR mice (20 mg/kg i.p.) is listed as “no apparent in vivo toxicity”. Also, the “survival after peptide injection” value in the data set with ICR mice (10 and 20 mg/kg intraperitoneally, 7 days) is listed as “All mice were alive”.
